According to ChEMBL document CHEMBL1255297, “Genomewide screening for genes associated with gliotoxin resistance and sensitivity in Saccharomyces cerevisiae” (2008):
≈ marks a conversion by molar mass, not a printed value.

Assays:
Assay type in all cases: functional
[1] = test system: Saccharomyces cerevisiae; assay: Antimicrobial activity against Saccharomyces cerevisiae containing disruption in YGL072C gene by broth microdilution method
[2] = test system: Saccharomyces cerevisiae; assay: Antimicrobial activity against Saccharomyces cerevisiae containing disruption in […] gene by broth microdilution method
[3] = test system: Saccharomyces cerevisiae; assay: Antimicrobial activity against Saccharomyces cerevisiae containing disruption in YGL235W gene by broth microdilution method
[4] = test system: Saccharomyces cerevisiae; assay: Antimicrobial activity against Saccharomyces cerevisiae containing disruption in YKL037W gene by broth microdilution method
[5] = test system: Saccharomyces cerevisiae; assay: Antimicrobial activity against Saccharomyces cerevisiae containing disruption in RAD18 gene by broth microdilution method
[6] = test system: Saccharomyces cerevisiae; assay: Antimicrobial activity against wild type Saccharomyces cerevisiae BY4741 by broth microdilution method
[7] = test system: Saccharomyces cerevisiae; assay: Antimicrobial activity against Saccharomyces cerevisiae containing disruption in APL2 gene by broth microdilution method
[8] = test system: Saccharomyces cerevisiae; assay: Antimicrobial activity against Saccharomyces cerevisiae containing disruption in SNF1 gene by broth microdilution method
[9] = test system: Saccharomyces cerevisiae; assay: Antimicrobial activity against Saccharomyces cerevisiae containing disruption in YOR345C gene by broth microdilution method
[10] = test system: Saccharomyces cerevisiae; assay: Antimicrobial activity against Saccharomyces cerevisiae containing disruption in IFA38 gene by broth microdilution method
[11] = test system: Saccharomyces cerevisiae; assay: Antimicrobial activity against Saccharomyces cerevisiae containing disruption in MEF2 gene by broth microdilution method
[12] = test system: Saccharomyces cerevisiae; assay: Antimicrobial activity against Saccharomyces cerevisiae containing disruption in CYS3 gene by broth microdilution method
[13] = test system: Saccharomyces cerevisiae; assay: Antimicrobial activity against Saccharomyces cerevisiae containing disruption in RTG2 gene by broth microdilution method
[14] = test system: Saccharomyces cerevisiae; assay: Antimicrobial activity against Saccharomyces cerevisiae containing disruption in YLR456W gene by broth microdilution method

Row | SMILES | MIC [1] [µg/mL] | MIC [2] [µg/mL] | MIC [3] [µg/mL] | MIC [4] [µg/mL] | MIC [5] [µg/mL] | MIC [6] [µg/mL] | MIC [7] [µg/mL] | MIC [8] [µg/mL] | MIC [9] [µg/mL] | MIC [10] [µg/mL] | MIC [11] [µg/mL] | MIC [12] [µg/mL] | MIC [13] [µg/mL] | MIC [14] [µg/mL]
1 | C[C@@H]1[C@H](O)[C@@H](C)/C=C/C=C/C=C/C=C/C=C/C=C/C=C/[C@H](O[C@@H]2O[C@H](C)[C@@H](O)[C@H](N)[C@@H]2O)C[C@@H]2O[C@](O)(C[C@@H](O)C[C@@H](O)[C@H](O)CC[C@@H](O)C[C@@H](O)CC(=O)O[C@H]1C)C[C@H](O)[C@H]2C(=O)O [AMPHOTERICIN B] | 0.5 (≈ 0.541 µM) | 0.5 (≈ 0.541 µM) | 0.5 (≈ 0.541 µM) | 0.25 (≈ 0.271 µM) | 0.5 (≈ 0.541 µM) | 0.125 (≈ 0.135 µM) | 0.5 (≈ 0.541 µM) | 0.5 (≈ 0.541 µM) | 0.5 (≈ 0.541 µM) | 0.5 (≈ 0.541 µM) | 0.25 (≈ 0.271 µM) | 0.25 (≈ 0.271 µM) | 0.5 (≈ 0.541 µM) | 0.5 (≈ 0.541 µM)
2 | CC[C@H](C)C[C@H](C)CCCCCCCCC(=O)N[C@H]1C[C@@H](O)[C@@H](NCCN)NC(=O)[C@@H]2[C@@H](O)CCN2C(=O)[C@H]([C@H](O)CCN)NC(=O)[C@H]([C@H](O)[C@@H](O)c2ccc(O)cc2)NC(=O)[C@@H]2C[C@@H](O)CN2C(=O)[C@H]([C@@H](C)O)NC1=O [CASPOFUNGIN] | 0.007 (≈ 0.0064 µM) | 0.007 (≈ 0.0064 µM) | 0.007 (≈ 0.0064 µM) | 0.028 (≈ 0.0256 µM) | 0.007 (≈ 0.0064 µM) | 0.007 (≈ 0.0064 µM) | 0.007 (≈ 0.0064 µM) | 0.007 (≈ 0.0064 µM) | 0.007 (≈ 0.0064 µM) | 0.007 (≈ 0.0064 µM) | 0.028 (≈ 0.0256 µM) | 0.028 (≈ 0.0256 µM) | 0.007 (≈ 0.0064 µM) | 0.007 (≈ 0.0064 µM)
3 | C[C@@H]1C[C@@H]([C@H](O)CC2CC(=O)NC(=O)C2)C(=O)[C@@H](C)C1 [CYCLOHEXIMIDE] | 0.025 (≈ 0.0889 µM) | 0.025 (≈ 0.0889 µM) | 0.025 (≈ 0.0889 µM) | 0.025 (≈ 0.0889 µM) | 0.025 (≈ 0.0889 µM) | 0.025 (≈ 0.0889 µM) | 0.025 (≈ 0.0889 µM) | 0.025 (≈ 0.0889 µM) | 0.025 (≈ 0.0889 µM) | 0.025 (≈ 0.0889 µM) | 0.025 (≈ 0.0889 µM) | 0.025 (≈ 0.0889 µM) | 0.025 (≈ 0.0889 µM) | 0.025 (≈ 0.0889 µM)
4 | OC(Cn1cncn1)(Cn1cncn1)c1ccc(F)cc1F [FLUCONAZOLE] | 16 (≈ 52.2 µM) | 16 (≈ 52.2 µM) | 16 (≈ 52.2 µM) | 32 (≈ 104 µM) | 16 (≈ 52.2 µM) | 32 (≈ 104 µM) | 16 (≈ 52.2 µM) | 16 (≈ 52.2 µM) | 16 (≈ 52.2 µM) | 16 (≈ 52.2 µM) | 32 (≈ 104 µM) | 32 (≈ 104 µM) | 16 (≈ 52.2 µM) | 16 (≈ 52.2 µM)
5 | CN1C(=O)[C@]23CC4=CC=C[C@H](O)[C@H]4N2C(=O)[C@@]1(CO)SS3 [GLIOTOXIN] | 16 (≈ 49 µM) | 2 (≈ 6.13 µM) | 8 (≈ 24.5 µM) | 0.125 (≈ 0.383 µM) | 8 (≈ 24.5 µM) | 0.5 (≈ 1.53 µM) | 8 (≈ 24.5 µM) | 8 (≈ 24.5 µM) | 16 (≈ 49 µM) | 2 (≈ 6.13 µM) | 0.06 (≈ 0.184 µM) | 0.06 (≈ 0.184 µM) | 8 (≈ 24.5 µM) | 8 (≈ 24.5 µM)
